For one assay, the system named is PC12 cells. Put plainly: Inhibition of Fe(II)-induced ROS formation in PC12 cells (DCFH-DA). Type of assay: cell-based. The conditions noted are these: read-out: IC50 inhibition of ROS formation. The protocol: In this study, nucleoside 5′-phosphorothioate analogues were explored as inhibitors of Fe(II)-induced oxidative stress in PC12 cells used as a neuronal model. Reduction of ROS production in PC12 cells by each one of the tested analogues was measured by DCFH-DA, a radical sensitive indicator. After DCFH-DA was removed, the tested analogue was added to the cells at a final concentration of 0.2-200 μM. Oxidation was initiated by the addition of FeSO4 (0.16 μM) to the wells. The plates were incubated for 1 h at 37° C., during which the absorbance was read by a Tecan fluorometer at 485/530 nm.

The target of a further assay is T1, human P2Y1-R (Homo sapiens, UniProt P47900).
T1 construct: expressed in transfected cells; host or cells: 1321N1 astrocytoma cells
T1 sequence (P47900 whole entry): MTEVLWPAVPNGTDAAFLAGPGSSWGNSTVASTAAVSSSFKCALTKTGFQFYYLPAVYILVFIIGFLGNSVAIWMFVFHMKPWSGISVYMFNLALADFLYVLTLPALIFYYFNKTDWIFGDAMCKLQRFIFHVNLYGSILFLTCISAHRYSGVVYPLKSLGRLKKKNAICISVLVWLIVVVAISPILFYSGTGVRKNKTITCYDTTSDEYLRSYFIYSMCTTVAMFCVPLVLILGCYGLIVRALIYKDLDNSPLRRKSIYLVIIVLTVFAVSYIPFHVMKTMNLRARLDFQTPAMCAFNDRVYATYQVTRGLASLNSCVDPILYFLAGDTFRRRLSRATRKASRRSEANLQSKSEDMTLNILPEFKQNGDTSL
The assay is described as follows: [Ca^2+]i response of 1321N1 astrocytoma cells expressing P2Y1-R GFP. It is filed as cell-based. The conditions noted are these: for EC50: agonist, read-out: EC50 at the P2Y1 receptor. On the procedure:
GFP constructs of human P2Y2-R, P2Y1-R and P2Y11-R were stably expressed in 1321N1 astrocytoma cells, which lack endogenous expression of P2X- and P2Y-receptors. The respective cDNA of the receptor gene was cloned into a pEGFPN1 vector and after transfection, using FuGENE 6 Transfection Reagent (Roche Molecular Biochemicals, Mannheim, Germany), cells were selected with 0.5 mg/ml G418 (geneticine; Merck Chemicals, Darmstadt, Germany) and grown in DMEM supplemented with 10% serum (FCS), 100 U/ml penicillin and 100 U/ml streptomycin at 37° C. and 5% CO2. The expression and cell membrane localization of the respective P2Y receptors was confirmed through the analysis of the GFP fluorescence. The functionality of the expressed GFP-labeled receptor in cells was verified by recording a change of [Ca^2+]i after stimulation with the appropriate receptor agonist.
1321N1 astrocytoma cells transfected with the respective plasmid for P2Y-R-GFP expression plated on coverslips (22 mm diameter) and grown to approximately 80% density, were incubated with 2 μM fura 2/AM and 0.02% pluronic acid in Na-HBS buffer (Hepes buffered saline: 145 mM NaCl, 5.4 mM KCl, 1.8 mM CaCl2, 1 mM MgCl2, 25 mM glucose, 20 mM Hepes/Tris pH 7.4) for 30 min at 37° C. The cells were superfused (1 ml/min, 37° C.) with different concentrations of nucleotide in Na-HBS buffer. The nucleotide-induced change of [Ca^2+] was monitored by detecting the fluorescence intensities with excitations at 340 nm and 380 nm. Only GFP-labeled cells were analyzed. Microsoft Excel (Microsoft Corp., Redmond, Wash., USA) and SigmaPlot (SPSS Inc., Chicago, Ill., USA) were used to derive the concentration-response curves and EC50 values from the average response amplitudes obtained in at least three independent experiments (Ecke et al., 2006; Ecke et al., 2008). Only cells with a clear GFP-signal and with the typical calcium response kinetics upon agonist pulse application were included in the data analysis. The nucleotide induced change of [Ca^2+]i was monitored by detecting the respective emission intensity of fura 2/AM at 510 nm with 340 nm and 380 nm excitations (Ubl et al., 1998). The average maximal amplitude of the responses and the respective standard errors were calculated from ratio of the fura 2/AM. The GFP-tagged P2Y receptors are suitable for pharmacological and physiological studies, as previously reported (Tulapurkar et al., 2004; Tulapurkar et al., 2006; Zylberg et al., 2007).

The next assay addresses T2, Aβ42-Zn^2+ aggregates (Homo sapiens, UniProt P05067).
T2 construct: Aggregation of monomeric Aβ42 was achieved by adding Zn(NO3)2 to a Aβ42 solution; purchased GL-Biochem (Shanghai)
The assay is described as follows: Turbidity assay at 405 nm, Aβ42-Zn^2+ aggregates. On the procedure: Aβ42 was weighted and dissolved in 10 mM NaOH, sonicated for 3 min and then freeze-dried. The freeze-dried Aβ42 was dissolved in 50 mM Tris-HCl (pH 7.4). The mixture was split and the pH of one of the samples was adjusted to 7.4 and the second sample to 6.6 by addition of 200 μM HCl. Two 300 μM Aβ42 mixtures were obtained. From these mixtures, controls and Aβ42-M^2+ aggregates were prepared by the addition of 1 mM Zn(NO3)2 or Cu(NO3)2 in DDW: 1. 200 μM Aβ42 (pH 7.4); 2. 200 μM Aβ42 (pH 6.6); 3.4×200 μM Aβ42-Zn^2+ (pH 7.4); 4.4×200 μM Aβ42-Cu^2+ (pH 6.6). The mixtures were left at RT for 2 h to form aggregates. 1 mM EDTA, ADP-β-S, and APCPP-γ-S in DDW were added to Aβ42-Zn^2+/Cu^2+ aggregates, then the mixtures were diluted with buffer to give the following mixtures: (i) 50 μM Aβ42-Cu^2+/Zn^2+; (ii) 50 μM Aβ42-Cu^2+/Zn^2+ containing 150 μM chelator (3 eq or) 300 μM chelator (6 eq) final volume 100 μl. The mixtures left at RT for 30 min before measurements, done in duplicate. 80 μl sample was taken for measurements in a quartz cuvette.
Aggregation of Aβ-metal ion complexes results in a turbid mixture that increases the light scattering in solution, leading to a higher absorbance at 405 nm (Storr et al., 2009).
Aggregation of monomeric Aβ42 was achieved by adding Zn(NO3)2 to a Aβ42 solution at pH 7.4, and Cu(NO3)2 to a Aβ42 solution at pH 6.6. […] The resultant Aβ42 mixtures were assayed for the resolubilization capacity of ADP-β-S and APCPP-γ-S in comparison to EDTA. […] At […] chelator, EDTA, ADP-β-S and APCPP-γ-S were almost equi-efficacious (FIG. 8B).

Where two headings read alike, the source gives them in different places.

T2 sequence (P05067 672-713 limits assumed): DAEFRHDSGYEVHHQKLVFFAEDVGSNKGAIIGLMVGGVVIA

The term IC50 denotes the concentration that gives 50% inhibition. The term EC50 denotes the concentration that produces a half-maximal response. As to `Nc1ncnc2c1ncn2[C@@H]1O[C@H](COP(=O)(O)CP(=O)(O)OP(O)(O)=S)[C@@H](O)[C@H]1O` [APCPP-γ-S, adenosine 5′-[Pγ-thio]-α,β-methylenetriphosphate], the IC50 with PC12 cells (Rattus norvegicus, PC-12, 1 h) is 0.16 µM. At human P2Y1-R, the “no activity at the P2Y1 receptor up to (concentration)” value is “up to 10 μM” and the EC50 was over 10 µM. Moreover, at Aβ42-Zn^2+ aggregates (3 eq), the “less effective than EDTA by” value was 21%. Further, the “less effective than EDTA by” value on Aβ42-Zn^2+ aggregates (6 eq) is 12%.
In the case of `Nc1ncnc2c1ncn2[C@@H]1O[C@H](COP(O)(=S)OP(=O)(O)C(Cl)(Cl)P(=O)(O)O)[C@@H](O)[C@H]1O` (single isomer, unassigned) [APPCCl2P-α-S, adenosine 5′-[Pα-thio]-β,γ-(dichloromethylene)triphosphate], on human P2Y1-R, the EC50 was over 10 µM.
On to `Nc1ncnc2c1ncn2[C@@H]1O[C@H](COP(=O)(O)OP(O)(O)=S)[C@@H](O)[C@H]1O` [ADP-β-S, adenosine 5′-[β-thio]diphosphate, reference compound], for which the IC50 in the assay on PC12 cells (PC12 cells, FeSO4 0.16 μM, 1 h, DCFH-DA) worked out at 26 µM. In addition, the “less effective than EDTA by” value is 63% on Aβ42-Zn^2+ aggregates (3 eq) and 27% on Aβ42-Zn^2+ aggregates (6 eq).

The values above are taken from patent US20140378408A1, “NUCLEOSIDE 5'-PHOSPHOROTHIOATE ANALOGUES AND USES THEREOF” (BAR-ILAN UNIVERSITY, an Israeli University, priority 2012, published 2014).
